Measured values reported in patent US9725752B2, “Resonator and process for performing biological assay” (THE UNITED STATES OF AMERICA, AS REPRESENTED BY THE …, priority 2015, dated 2017).

Key:
Format in all cases: cell-based
[1] = test system: Escherichia coli (E. coli) cells; test: Phase noise of piezoelectric resonator with adhered microbes exposed to antibiotic; details: for time frame in which the resonator method detects antimicrobial action against live E. coli cells: preliminary experiments; for PSDs of the acoustic resonators when the antibiotic was introduced: spectral power 4 Hz to 20 Hz, FIG. 35, FIG. 36
Method: An acoustic article was prepared to detect microbial viability through measurements of phase noise of a resonator on which microbes were adhered. An acoustic article was prepared by combining a piezoelectric resonator (commercially available from Biolin Scientific, model Q-Sense) and custom fabricated components that interfaced to the piezoelectric resonator. The piezoelectric resonator included an electrical contact to a piezoelectric crystal. […] One side of the piezoelectric crystal faced a fluid chamber and was coated with a thin layer of poly-L-lysine (PLL) to promote adhesion of microbes to the surface. The piezoelectric resonator was disposed on an aluminum platform that incorporated electrical lines to the resonator, and the platform was placed on a thermally controlled platform held at a constant temperature of approximately 37° C. Phosphate-buffered saline (PBS) was introduced to the fluid chamber, and electronics configured according to FIG. 30 and FIG. 31 were used to determine the resonant frequency of the resonator by varying the output frequency from frequency source 200 while monitoring the amplitude of the RF output from amplifier 222. The output frequency of the CW voltage from the frequency source was then set to this measured resonant frequency. Subsequently, averaged power spectral densities of phase noise from the resonator were determined from the measured time-varying voltage from phase-noise detector 106 passed to vector signal analyzer 206, through the use of a calibration of phase-noise detector 106. Following acquisition of this background spectrum, Escherichia coli (E. coli) cells were suspended in PBS and flowed through the fluid chamber over the crystal for five minutes. The chamber was then drained of fluid and refilled with Luria-Bertani (LB) broth to provide nutrients for bacterial growth. E. coli adhered to the crystal surface during this sequence, and unattached cells were washed away.
Power spectral densities (PSDs) were repeatedly acquired over a period beginning 30 minutes before ampicillin in LB was introduced to the crystal and ending 68 minutes after this introduction of ampicillin. Before the acquisition of each averaged spectrum, the output of frequency source 200 was retuned to the current frequency of the resonator while monitoring the output of amplifier 222. […] The background PSD in PBS has been subtracted from these spectra.
To provide a scalar quantity reflective of the measured PSDs, the spectra in FIG. 33 and similar spectra at other times during the experiment were integrated over the frequency range from 3 Hz to 20 Hz. This quantity, which is the total spectral power over this frequency range, is plotted in FIG. 34 as a function of time.
Simultaneous control measurements of PSDs were also acquired on a second piezoelectric crystal with the same sequence of introduction of fluids, except that the effector fluid contained no ampicillin. With this control crystal, PSDs increased continuously during the entire experiment.
The acoustic article, electronic circuitry, data acquisition procedures, and fluid-analyte processing steps described in Example 1 were used to probe the effect of an antibiotic, polymyxin B, on phase noise generated by E. coli Here, two identical resonators (“Crystal A” and “Crystal B”) were used in which Crystal B was not exposed to polymyxin B until more than 40 minutes after introduction of polymyxin B to Crystal A.
Measurements of PSDs of the first resonator (Crystal A) before and after exposure of E. coli to polymyxin B are shown in FIG. 35. […] Data from second resonator Crystal B with E. coli not exposed to polymyxin B during 0-40 minutes are shown in FIG. 36 and labelled as “Crystal B,” wherein data labelled as “Crystal A” are data taken in presence of polymyxin B during 0-40 minutes and later.

[2] = test system: Escherichia coli (E. coli) cells; test: Optical microscope images of cell density on the crystal
[3] = test system: Escherichia coli (E. coli) cells; test: Plating of cells collected from the crystal for enumeration of colony-forming units (CFUs); details: LB-agar plates, growth at least 24 hours; for number of CFUs relative to a parallel sample not exposed to antibiotic: cells collected from crystal
Excerpt: To confirm the action of the antibiotic on E. coli viability, cells were collected from the surface of the crystal and plated after serial dilution onto LB-agar plates for enumeration of colony-forming units (CFUs).
To confirm the action of the antibiotic on E. coli viability, cells were collected from the surface of the resonators (Crystal A and Crystal B) and plated after serial dilution onto LB-agar plates for enumeration of colony-forming units (CFUs).

| Compound | spectral power of phase noise soon after introduction of antibiotic ([1]; PSD integrated 3 Hz to 20 Hz, E. coli on PLL-coated crystal in LB, approx. 37° C., FIG. 34) | time after introduction of antibiotic at which spectral power began dropping towards the background level ([1]; PSD integrated 3 Hz to 20 Hz, FIG. 34) | time frame in which the resonator method detects antimicrobial action against live E. coli cells [1] | PSDs of the acoustic resonators when the antibiotic was introduced [1] | cell density after introduction of antibiotic ([2]; period beginning 30 min after introduction of ampicillin, FIG. 34) | number of CFUs relative to a parallel sample not exposed to antibiotic [3] | disintegration of E. coli cells [2] | CFUs recovered from treated resonators ([3]; FIG. 37) |
| --- | --- | --- | --- | --- | --- | --- | --- | --- |
| CC1(C)S[C@@H]2[C@H](NC(=O)[C@H](N)c3ccccc3)C(=O)N2[C@H]1C(=O)O [ampicillin] | essentially leveled off | approximately 30 minutes | within a one-hour time frame | dropped dramatically | dropped as a result of lysing and disintegration of cells | several log decrease |  |  |
| polymyxin B |  |  | within a one-hour time frame | dropped dramatically |  | greater than several log decrease | does not induce a disintegration | no CFUs were recovered |
